From ChEMBL document CHEMBL1157522 (Bioorg Med Chem Lett, 2008)
Calls of active or inactive are those of the source. No cut-off for these calls is given here.

Tests used:
[1] = target: Vitamin K-dependent protein C (Homo sapiens) (UniProt P04070); assay: Inhibition of human activated protein C
[2] = target: T1, Coagulation factor VII (Homo sapiens) (UniProt P08709); assay: Inhibition of human factor 7a
T1 sequence (whole entry): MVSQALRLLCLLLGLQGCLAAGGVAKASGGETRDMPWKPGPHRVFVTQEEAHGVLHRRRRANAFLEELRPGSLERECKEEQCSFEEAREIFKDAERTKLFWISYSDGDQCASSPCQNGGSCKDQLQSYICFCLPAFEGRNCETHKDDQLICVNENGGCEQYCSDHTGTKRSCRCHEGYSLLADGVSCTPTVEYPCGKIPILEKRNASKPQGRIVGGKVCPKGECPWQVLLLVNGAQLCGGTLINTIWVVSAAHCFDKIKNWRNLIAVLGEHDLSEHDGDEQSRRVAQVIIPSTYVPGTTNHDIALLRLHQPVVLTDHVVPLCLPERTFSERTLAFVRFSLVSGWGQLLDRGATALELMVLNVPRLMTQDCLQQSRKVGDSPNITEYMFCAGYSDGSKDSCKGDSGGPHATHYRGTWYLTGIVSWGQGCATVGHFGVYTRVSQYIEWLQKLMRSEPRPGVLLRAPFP

[3] = species on record: Homo sapiens; assay: Inhibition of human chymotrypsin
[4] = target: Plasma kallikrein (Homo sapiens) (UniProt P03952); assay: Inhibition of human plasma kallikrein; format: cell-free
Sequence of Plasma kallikrein (Homo sapiens) (P03952 20-390 limits assumed): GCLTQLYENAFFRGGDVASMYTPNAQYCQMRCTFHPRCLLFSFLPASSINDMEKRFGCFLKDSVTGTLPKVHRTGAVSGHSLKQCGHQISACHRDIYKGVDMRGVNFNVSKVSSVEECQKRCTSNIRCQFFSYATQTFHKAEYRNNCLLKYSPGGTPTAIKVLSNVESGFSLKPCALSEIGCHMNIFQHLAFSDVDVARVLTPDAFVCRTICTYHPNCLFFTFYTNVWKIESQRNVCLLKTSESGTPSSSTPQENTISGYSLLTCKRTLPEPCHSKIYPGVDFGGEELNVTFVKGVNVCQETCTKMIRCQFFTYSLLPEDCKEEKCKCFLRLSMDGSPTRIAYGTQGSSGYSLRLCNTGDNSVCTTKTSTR
Sequence of Plasma kallikrein (Homo sapiens) (P03952 391-638 limits assumed): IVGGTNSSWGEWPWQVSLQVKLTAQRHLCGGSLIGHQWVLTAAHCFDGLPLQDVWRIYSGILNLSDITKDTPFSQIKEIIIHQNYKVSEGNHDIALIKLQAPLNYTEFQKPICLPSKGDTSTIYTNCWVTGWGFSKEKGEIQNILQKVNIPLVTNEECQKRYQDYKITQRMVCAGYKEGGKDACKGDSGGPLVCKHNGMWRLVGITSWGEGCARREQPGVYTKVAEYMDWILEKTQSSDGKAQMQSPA

[5] = target: Plasminogen (Homo sapiens) (UniProt P00747); assay: Inhibition of human plasmin
Sequence of Plasminogen (Homo sapiens) (P00747 97-580 limits assumed): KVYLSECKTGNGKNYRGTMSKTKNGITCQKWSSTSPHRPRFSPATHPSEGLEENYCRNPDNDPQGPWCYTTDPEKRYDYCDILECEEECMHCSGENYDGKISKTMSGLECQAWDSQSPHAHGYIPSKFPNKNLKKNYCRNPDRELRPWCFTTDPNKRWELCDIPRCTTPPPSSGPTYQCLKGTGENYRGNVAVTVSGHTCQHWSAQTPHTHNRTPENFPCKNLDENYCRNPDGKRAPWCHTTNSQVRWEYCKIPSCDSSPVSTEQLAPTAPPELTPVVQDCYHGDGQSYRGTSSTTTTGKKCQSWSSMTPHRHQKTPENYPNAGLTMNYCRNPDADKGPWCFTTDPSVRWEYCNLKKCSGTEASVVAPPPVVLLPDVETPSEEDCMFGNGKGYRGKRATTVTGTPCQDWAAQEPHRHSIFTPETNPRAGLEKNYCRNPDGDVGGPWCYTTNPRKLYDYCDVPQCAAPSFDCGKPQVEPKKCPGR
Sequence of Plasminogen (Homo sapiens) (P00747 581-810 limits assumed): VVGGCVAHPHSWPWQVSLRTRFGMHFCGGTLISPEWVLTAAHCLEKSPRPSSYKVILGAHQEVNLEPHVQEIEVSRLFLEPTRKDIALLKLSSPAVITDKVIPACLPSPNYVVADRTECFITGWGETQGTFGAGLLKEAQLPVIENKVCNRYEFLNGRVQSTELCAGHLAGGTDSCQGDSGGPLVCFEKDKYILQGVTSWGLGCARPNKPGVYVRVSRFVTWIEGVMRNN

[6] = target: Tissue-type plasminogen activator (Homo sapiens) (UniProt P00750); assay: Inhibition of human tPA
Sequence of Tissue-type plasminogen activator (Homo sapiens) (P00750 36-562 limits assumed): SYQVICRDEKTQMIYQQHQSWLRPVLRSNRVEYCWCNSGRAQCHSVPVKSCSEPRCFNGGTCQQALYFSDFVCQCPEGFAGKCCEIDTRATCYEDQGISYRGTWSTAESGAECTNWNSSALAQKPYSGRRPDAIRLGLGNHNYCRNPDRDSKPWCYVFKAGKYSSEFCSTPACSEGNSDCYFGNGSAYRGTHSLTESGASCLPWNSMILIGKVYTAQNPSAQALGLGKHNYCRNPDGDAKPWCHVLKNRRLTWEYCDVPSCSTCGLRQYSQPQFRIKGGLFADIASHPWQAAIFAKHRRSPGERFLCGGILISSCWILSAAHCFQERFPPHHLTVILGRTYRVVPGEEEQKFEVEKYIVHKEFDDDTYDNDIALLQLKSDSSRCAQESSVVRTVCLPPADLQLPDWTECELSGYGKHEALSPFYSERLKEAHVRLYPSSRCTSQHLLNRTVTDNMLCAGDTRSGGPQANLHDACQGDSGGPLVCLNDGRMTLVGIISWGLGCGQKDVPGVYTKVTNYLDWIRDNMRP

[7] = target: Coagulation factor IX (Homo sapiens) (UniProt P00740); assay: Inhibition of human factor 9a
Sequence of Coagulation factor IX (Homo sapiens) (P00740 47-191 limits assumed): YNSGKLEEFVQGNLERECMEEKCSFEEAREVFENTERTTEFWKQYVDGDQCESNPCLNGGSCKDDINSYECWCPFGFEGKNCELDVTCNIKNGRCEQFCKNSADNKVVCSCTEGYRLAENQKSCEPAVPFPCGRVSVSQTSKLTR
Sequence of Coagulation factor IX (Homo sapiens) (P00740 227-461 limits assumed): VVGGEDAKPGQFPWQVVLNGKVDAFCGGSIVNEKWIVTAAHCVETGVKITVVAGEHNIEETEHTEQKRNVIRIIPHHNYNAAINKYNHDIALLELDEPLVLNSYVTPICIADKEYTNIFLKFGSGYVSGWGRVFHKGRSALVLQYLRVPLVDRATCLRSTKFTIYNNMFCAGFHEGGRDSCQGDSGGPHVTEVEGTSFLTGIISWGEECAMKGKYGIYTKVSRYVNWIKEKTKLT

[8] = target: Coagulation factor X (Homo sapiens, UniProt P00742); assay: Inhibition of human factor 10a
Sequence of Coagulation factor X (P00742 41-179 limits assumed): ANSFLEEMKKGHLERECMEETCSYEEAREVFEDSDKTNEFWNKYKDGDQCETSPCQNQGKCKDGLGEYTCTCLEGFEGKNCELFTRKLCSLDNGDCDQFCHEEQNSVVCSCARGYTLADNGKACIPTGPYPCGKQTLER
Sequence of Coagulation factor X (P00742 235-488 limits assumed): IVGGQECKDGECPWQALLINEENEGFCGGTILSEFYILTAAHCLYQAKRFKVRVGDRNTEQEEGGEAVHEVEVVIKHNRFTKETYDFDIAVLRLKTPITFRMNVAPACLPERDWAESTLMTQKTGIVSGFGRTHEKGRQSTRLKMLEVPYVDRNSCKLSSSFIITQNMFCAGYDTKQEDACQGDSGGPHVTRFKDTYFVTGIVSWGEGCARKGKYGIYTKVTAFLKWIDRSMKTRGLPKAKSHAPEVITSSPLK

[9] = target: Trypsin (Homo sapiens) (UniProt P07477+P07478+P35030); assay: Inhibition of human trypsin; format: protein assay

Sequence of Vitamin K-dependent protein C (Homo sapiens) (P04070 43-197 limits assumed): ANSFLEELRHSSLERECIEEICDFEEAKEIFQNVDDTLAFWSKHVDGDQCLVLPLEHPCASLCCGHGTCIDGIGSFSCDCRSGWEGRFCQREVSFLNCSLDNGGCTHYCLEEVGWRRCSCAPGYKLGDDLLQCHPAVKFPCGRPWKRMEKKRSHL
Sequence of Vitamin K-dependent protein C (Homo sapiens) (P04070 212-461 limits assumed): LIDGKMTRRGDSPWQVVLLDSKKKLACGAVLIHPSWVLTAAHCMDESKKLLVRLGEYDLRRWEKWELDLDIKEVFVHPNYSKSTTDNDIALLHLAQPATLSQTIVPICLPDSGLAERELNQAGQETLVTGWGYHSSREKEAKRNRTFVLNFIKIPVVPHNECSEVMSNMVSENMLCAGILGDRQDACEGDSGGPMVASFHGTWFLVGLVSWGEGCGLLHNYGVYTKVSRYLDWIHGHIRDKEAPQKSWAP

Row | Compound | Activity [1] | Activity [2] | Activity [3] | Activity [4] | Activity [5] | Activity [6] | Activity [7] | Ki [8] [nM] | Activity [9]
1 | COc1ccc(-n2nc(C(F)(F)F)c3c2C(=O)N(c2ccc(C4(CNC(C)C)CC4)cc2)CC3)cc1 | inactive | inactive | inactive | inactive | inactive | inactive | inactive | 0.042 | inactive
2 | COc1ccc(-n2nc(C(F)(F)F)c3c2C(=O)N(c2ccc(C4(CO)CC4)cc2)CC3)cc1 | inactive | inactive | inactive | inactive | inactive | inactive | inactive | 2.4 | inactive
3 | COc1ccc(-n2nc(C(F)(F)F)c3c2C(=O)N(c2ccc(C4(CN5CCC(O)CC5)CC4)cc2)CC3)cc1 | inactive | inactive | inactive | inactive | inactive | inactive | inactive | 0.14 | inactive
4 | CNCc1ccccc1-c1ccc(N2CCc3c(C(N)=O)nn(-c4ccc(OC)cc4)c3C2=O)cc1 |  |  |  |  |  |  |  | 0.15 | 
5 | COCC1(c2ccc(N3CCc4c(C(F)(F)F)nn(-c5ccc(OC)cc5)c4C3=O)cc2)CC1 | inactive | inactive | inactive | inactive | inactive | inactive | inactive | 1.6 | inactive
6 | COc1ccc(-n2nc(C(F)(F)F)c3c2C(=O)N(c2ccc(-c4ccccc4CNC(C)C)cc2)CC3)cc1 |  |  |  |  |  |  |  | 1.4 | 
7 | CNCC1(c2ccc(N3CCc4c(C(F)(F)F)nn(-c5ccc(OC)cc5)c4C3=O)cc2)CC1 | inactive | inactive | inactive | inactive | inactive | inactive | inactive |  | inactive
8 | COc1ccc(-n2nc(C(F)(F)F)c3c2C(=O)N(c2ccc(C4(C(=O)N(C)C)CC4)cc2)CC3)cc1 | inactive | inactive | inactive | inactive | inactive | inactive | inactive | 5.8 | inactive
9 | CCN(CC)CC1(c2ccc(N3CCc4c(C(F)(F)F)nn(-c5ccc(OC)cc5)c4C3=O)cc2)CC1 | inactive | inactive | inactive | inactive | inactive | inactive | inactive | < 0.02 | inactive
10 | COc1ccc(-n2nc(C(F)(F)F)c3c2C(=O)N(c2ccc(C4(C(=O)Nc5nnn[nH]5)CC4)cc2)CC3)cc1 | inactive | inactive | inactive | inactive | inactive | inactive | inactive | 3 | inactive
11 | COc1ccc(-n2nc(C(F)(F)F)c3c2C(=O)N(c2ccc(C4(CNC5CCCC5)CC4)cc2)CC3)cc1 | inactive | inactive | inactive | inactive | inactive | inactive | inactive | 0.12 | inactive
12 | COc1ccc(-n2nc(C(F)(F)F)c3c2C(=O)N(c2ccc(C4(C(=O)NC5CCCC5)CC4)cc2)CC3)cc1 | inactive | inactive | inactive | inactive | inactive | inactive | inactive | 30 | inactive
13 | CCNC(=O)N(C)CC1(c2ccc(N3CCc4c(C(F)(F)F)nn(-c5ccc(OC)cc5)c4C3=O)cc2)CC1 | inactive | inactive | inactive | inactive | inactive | inactive | inactive | 0.14 | inactive
14 | COc1ccc(-n2nc(C(F)(F)F)c3c2C(=O)N(c2ccc(C4(Cn5ccnc5C)CC4)cc2)CC3)cc1 | inactive | inactive | inactive | inactive | inactive | inactive | inactive |  | inactive
15 | COc1ccc(-n2nc(C(F)(F)F)c3c2C(=O)N(c2ccc(C4(CN5CCOCC5)CC4)cc2)CC3)cc1 | inactive | inactive | inactive | inactive | inactive | inactive | inactive |  | inactive
16 | COc1ccc(-n2nc(C(F)(F)F)c3c2C(=O)N(c2ccc(C4(C(N)=O)CC4)cc2)CC3)cc1 | inactive | inactive | inactive | inactive | inactive | inactive | inactive | 3.3 | inactive
17 | COc1ccc(-n2nc(C(F)(F)F)c3c2C(=O)N(c2ccc(C4(C(=O)N5CCC(O)CC5)CC4)cc2)CC3)cc1 | inactive | inactive | inactive | inactive | inactive | inactive | inactive | 54 | inactive
18 | COc1ccc(-n2nc(C(F)(F)F)c3c2C(=O)N(c2ccc(C4(C#N)CC4)cc2)CC3)cc1 | inactive | inactive | inactive | inactive | inactive | inactive | inactive | 1.8 | inactive
19 | COc1ccc(-n2nc(C(F)(F)F)c3c2C(=O)N(c2ccc(C4(CNc5nccs5)CC4)cc2)CC3)cc1 | inactive | inactive | inactive | inactive | inactive | inactive | inactive | 0.054 | inactive
20 | COC(=O)C1(c2ccc(N3CCc4c(C(F)(F)F)nn(-c5ccc(OC)cc5)c4C3=O)cc2)CC1 | inactive | inactive | inactive | inactive | inactive | inactive | inactive |  | inactive
21 | COc1ccc(-n2nc(C(F)(F)F)c3c2C(=O)N(c2ccc(C4(CN(C)C(C)=O)CC4)cc2)CC3)cc1 | inactive | inactive | inactive | inactive | inactive | inactive | inactive | 0.055 | inactive
22 | COc1ccc(-n2nc(C(F)(F)F)c3c2C(=O)N(c2ccc(-c4ccccc4CN(C)C)cc2)CC3)cc1 |  |  |  |  |  |  |  | 0.3 | 
23 | COc1ccc(-n2nc(C(F)(F)F)c3c2C(=O)N(c2ccc(C4(C(=O)N5CCCC5)CC4)cc2)CC3)cc1 | inactive | inactive | inactive | inactive | inactive | inactive | inactive | 169 | inactive
24 | CNCc1ccccc1-c1ccc(N2CCc3c(C(F)(F)F)nn(-c4ccc(OC)cc4)c3C2=O)cc1 |  |  |  |  |  |  |  | 0.28 | 
25 | COc1ccc(-n2nc(C(F)(F)F)c3c2C(=O)N(c2ccc(C4(C(=O)Nc5nncs5)CC4)cc2)CC3)cc1 | inactive | inactive | inactive | inactive | inactive | inactive | inactive | 1.8 | inactive
26 | COc1ccc(-n2nc(C(F)(F)F)c3c2C(=O)N(c2ccc(C4(CN5CC[C@@H](O)C5)CC4)cc2)CC3)cc1 | inactive | inactive | inactive | inactive | inactive | inactive | inactive | 0.038 | inactive
